# Test results reported in patent publication US12035716B2, “Treatment for seeds disinfection” (VILMORIN & CIE, priority 2013, dated 2024).
# Read-outs that look alike come from different tables or passages of the source.
# Key:
# Acidovorax citrulli = settings: cited from earlier work; for Eradication of seed borne Acidovorax citrulli inoculum: chemical seed treatment of infected seeds (Dutta et al. 2012)
# tomato seeds = experiment: Germination and transplant tests of treated tomato seeds (AOSA, Example 8); format: in vivo; settings: 1% Ca(ClO)2; for UNIF (Uniform Transplants) / UT (Useable Transplants): trays in a greenhouse
# Text: (§1) Tomato seeds have been obtained from commercial seed lot naturally infected by CMM in the production field. Vacuum treatment was done by vacuum infiltration (VI) method using 4 liters of 1% calcium hypochlorite, as described hereafter. The vacuum was applied while seeds were located in a perforated basket above the disinfectant solution in a closed chamber. A vacuum pressure was applied at maximal reachable vacuum pressure of about 975-985 mbar, followed by submerging the seeds into the solution and releasing the vacuum. Vacuum/de-vacuum cycles were repeated 4 times and at the end, all the seeds sunk. The seeds were collected, rinsed for 5 minutes and dried. Soaking treatment was done in the same solution for one hour after VI treatment or without VI treatment.
# The germination tests have been done according to the Association of Official Seed Analysts (AOSA) (http://www.aosaseed.com/).
# [1] = test system: Clavibacter michiganensis subsp. michiganensis; experiment: Disinfection of tomato seeds naturally infected by CMM; ISF detection method; format: in vivo; settings: 1% Ca(ClO)2
# Text: as §1
# Clavibacter michiganensis subsp. michiganensis infection results were obtained by using the “method for the detection of Clavibacter michiganensis subsp. michiganensis on tomato seed” according to the International Seed Federation (ISF) Manual of Seed Health Methods, as can be found in the internet site: http://www.worldseed.org/isf/ishi_vegetable.html.
# CGMMV = settings: Tri Sodium Phosphate 10%, negative control 0.13
# Procedure: In this case, cucumber seeds have been obtained from a commercial seed lot, naturally infected by CGMMV in the production field.
# The seeds were disinfected by standard method and by vacuum infiltration method. In this case, vacuum is applied at maximal pressure of 975-985 mbar from the beginning. […] The vacuum cycles continue until floating seeds are no longer sinking. The floating seeds are then removed and discarded. This process takes 15-20 minutes.
# In this case two chemicals were used.
# We also tested the effect of different concentration of Na-Dichloroisocyanurate applied by vacuum infiltration on CGMMV and germination (table II) treatment E is untreated control; treatment F is vacuum infiltration of Na-Dichloroisocyanurate 0.75%; treatment G is vacuum infiltration of Na-Dichloroisocyanurate 1.5% and treatment H is vacuum infiltration of Na-Dich loroisocyanurate 2.0%.
# CGMMV was tested by ELISA assay according to method 7-026 of the international rules for seed testing annex to chapter 7: seed health testing methods; International Seed Testing Association, Zurich, Switzerland, 2010.
# cucumber seeds = settings: Tri Sodium Phosphate 10%
# Procedure: The germination test was performed according to Annex to chapter 5, International Rules for Seed Testing, International Seed Testing Association, Zurich, Switzerland, 1996.
smiles,measurement,setting,value
CC(=O)OO [peroxyacetic acid],Eradication of seed borne Acidovorax citrulli inoculum,Acidovorax citrulli,generally fail to eradicate the bacterium from the infected seeds
same,BFB seedling transmission,Acidovorax citrulli; seed treatment (Walcott 2005),significantly reduce BFB seedling transmission
Cl [hydrochloric acid],Eradication of seed borne Acidovorax citrulli inoculum,Acidovorax citrulli,generally fail to eradicate the bacterium from the infected seeds
same,BFB seedling transmission,Acidovorax citrulli; in vivo,significantly reduce BFB seedling transmission
"[Ca+2].[O-]Cl.[O-]Cl [Ca(ClO)2, calcium hypochlorite]","EN (Energy, early germination counts on Day 5)",tomato seeds; 1 hr soak alone,98
same,"OG (Optimum Germination, counted on Day 14)",tomato seeds; 1 hr soak alone,98
same,UNIF (Uniform Transplants),tomato seeds; 1 hr soak alone,92
same,UT (Useable Transplants),tomato seeds; 1 hr soak alone,95
same,"EN (Energy, early germination counts on Day 5)",tomato seeds; VI alone,96
same,"OG (Optimum Germination, counted on Day 14)",tomato seeds; VI alone,96
same,UNIF (Uniform Transplants),tomato seeds; VI alone,91
same,UT (Useable Transplants),tomato seeds; VI alone,94
same,"EN (Energy, early germination counts on Day 5)",tomato seeds; VI then 1 hr soak,99
same,"OG (Optimum Germination, counted on Day 14)",tomato seeds; VI then 1 hr soak,99
same,UNIF (Uniform Transplants),tomato seeds; VI then 1 hr soak,89
same,UT (Useable Transplants),tomato seeds; VI then 1 hr soak,92
same,CMM infection results,[1]; 1 hr soak alone,Positive
same,CMM infection results,[1]; VI alone,Negative
same,CMM infection results,[1]; VI then 1 hr soak,Negative
OCl [sodium hypochlorite],Eradication of seed borne Acidovorax citrulli inoculum,Acidovorax citrulli,generally fail to eradicate the bacterium from the infected seeds
same,BFB seedling transmission,Acidovorax citrulli; seed treatment (Walcott 2005),significantly reduce BFB seedling transmission
O=P([O-])([O-])[O-].[Na+].[Na+].[Na+] [Tri Sodium Phosphate],ELISA assay result (rate of extinction at A405),CGMMV; standard disinfection,0.34
same,ELISA assay result (rate of extinction at A405),CGMMV; vacuum infiltration,0.19
same,Germination %,cucumber seeds; standard disinfection,100%
same,Germination %,cucumber seeds; vacuum infiltration,100%
